Data from ChEMBL document CHEMBL4402528, “Multi-target drugs active against leishmaniasis: A paradigm of drug repurposing” (Eur J Med Chem, 2019).
Values after ≈ are worked out from the molar mass of the structure shown.

Legend:
Leishmania donovani = experiment: Antileishmanial activity against Leishmania donovani LCR-133 promastigotes assessed as reduction in RNA synthesis at 95 uM preincubated for 30 mins followed by addition of 5-[3H]-uridine and measured up to 145 mins by liquid scintillation counting method relative o control; assay type: functional; set-up: scale not given: the % may be the effect or the level left
Leishmania amazonensis [1] = experiment: Antileishmanial activity against Leishmania amazonensis MHOM/BR/75/Josefa promastigotes assessed as reduction in parasite viability after 72 hrs by Neubauer chamber counting method; assay type: functional, organism-based
Leishmania amazonensis [2] = experiment: Antileishmanial activity against Leishmania amazonensis MHOM/BR/75/Josefa intracellular amastigotes infected in CF-1 macrophages assessed as reduction in parasite viability after 72 hrs by optical microscopic method; assay type: functional, organism-based
Candida albicans = experiment: Antifungal activity against Candida albicans assessed as reduction in viability after 24 hrs by broth microdilution assay; assay type: functional
Leishmania mexicana = experiment: Antileishmanial activity against Leishmania mexicana intracellular amastigotes infected in J774 macrophages assessed as reduction in parasite viability after 72 hrs; assay type: functional, organism-based; settings: J774, 72 h
Leishmania amazonensis [3] = experiment: Antileishmanial activity against Leishmania amazonensis MHOM/BR/77/LTB 0016 intracellular amastigotes infected in BALB/c Peritoneal macrophages assessed as reduction in parasite viability after 72 hrs by light microscopic method; assay type: functional, organism-based; settings: MHOM/BR/77/LTB 0016, 72 h
Leishmania amazonensis [4] = experiment: Antileishmanial activity against Leishmania amazonensis MHOM/BR/77/LTB 0016 promastigotes assessed as reduction in parasite viability after 72 hrs by MTT assay; assay type: functional, organism-based; settings: MHOM/BR/77/LTB 0016, 72 h
Leishmania amazonensis [5] = experiment: Antileishmanial activity against Leishmania amazonensis promastigotes assessed as reduction in parasite viability after 72 hrs by CCK-8 assay; assay type: functional, organism-based

CCCCCCCCCCCCCCCCOP(=O)([O-])OCC[N+](C)(C)C [MILTEFOSINE]
Activity (Leishmania donovani): 96.32%

CCC(C)n1ncn(-c2ccc(N3CCN(c4ccc(OCC5COC(Cn6cncn6)(c6ccc(Cl)cc6Cl)O5)cc4)CC3)cc2)c1=O (centres undefined) [ITRACONAZOLE]
IC50 (Leishmania amazonensis [1]): 440 nM
IC50 (Leishmania amazonensis [2]): 80 nM

C[C@@H]1[C@H](O)[C@@H](C)/C=C/C=C/C=C/C=C/C=C/C=C/C=C/[C@H](O[C@@H]2O[C@H](C)[C@@H](O)[C@H](N)[C@@H]2O)C[C@@H]2O[C@](O)(C[C@@H](O)C[C@@H](O)[C@H](O)CC[C@@H](O)C[C@@H](O)CC(=O)O[C@H]1C)C[C@H](O)[C@H]2C(=O)O [AMPHOTERICIN B]
MIC (Candida albicans): 0.25 µM (≈ 0.231 µg/mL)

CC(C)=CCC/C(C)=C/CNCCNC1C2CC3CC(C2)CC1C3 (centres undefined) [SQ109]
IC50 (Leishmania mexicana): 11 nM

CC(=O)N1CCN(c2ccc(OCC3COC(Cn4ccnc4)(c4ccc(Cl)cc4Cl)O3)cc2)CC1 (centres undefined) [KETOCONAZOLE]
IC50 (Leishmania amazonensis [3]): 6.8 µM
IC50 (Leishmania amazonensis [4]): 2700 nM

C[C@@H]1C[C@@H](C)/C=C/C=C/C=C/C=C/C=C/C=C/C=C/[C@H](O[C@@H]2O[C@H](C)[C@@H](O)[C@H](N)[C@@H]2O)C[C@@H]2O[C@](O)(C[C@@H](O)C[C@@H](O)[C@H](O)CC[C@@H](O)C[C@@H](O)CC(=O)O[C@H]1C)C[C@H](O)[C@H]2C(=O)O
MIC (Candida albicans): 4 µM (≈ 3.63 µg/mL)

OC(Cn1cncn1)(Cn1cncn1)c1ccc(F)cc1F [FLUCONAZOLE]
IC50 (Leishmania amazonensis [5]): 10.1 µM
